In one data set the test system is depression. The conditions noted are these: cited from earlier work; for side effects: adults; for effective in alleviating depression in adults: versus placebo.
For a further data set, the system named is GLUT5. The conditions noted are these: mice; duodenum and adipose tissue; cited from earlier work.
On the set-up of data set [1]: key to Oxidation into 14CO2: x: Detected but not quantified; xx: Detected but not quantified. The conditions noted are these: rats, cited from earlier work.
The conditions of data set [2]: carboxyl group; cited from earlier work.
The conditions of data set [3]: rat, in vivo; cited from earlier work.
Data set [4] is described as follows: Alkaline hydrolyzation of spiked fructose-tryptophan Amadori product in stool extract. Format: physicochemical. The conditions noted are these: 10 M NaOH, 100° C., 20 min. The procedure: 5 mg fructose-tryptophan Amadori product (MW=366.37 Da) was dissolved in 2.27 ml aqua dest. (6 mM/L). The concentration of peptide groups in this solution was determined to be 4.36 mM/L using a BCA test (Smith P K et al, Measurement of protein using bicinchoninic acid, in: Analytical Biochemistry […], 150(1):76-85, doi:10.1016/0003-2697(85)90442-7). This concentration was taken in the spiking experiments. The IDK® Amino Extract (dilution 1:50) was spiked with fructose-tryptophan Amadori product (not the raw stool) to achieve a target concentration the spiked fecal extract of 6 μM Amadori adduct/L. This corresponds to a spiking of 300 μM fructose-tryptophan Amadori product per gram stool as the stool was diluted 1:50 in the extract.
The spiking and hydrolyzation was carried out as follows: 70 μl stool extract were spiked with 10 μl 60 μM/L fructose-tryptophan Amadori product (as determined by BCA) and 10 μl 10 M NaOH. This solution was incubated at 100° C. for 20 min. to achieve hydrolyzation of all adducts and centrifuged at 550 rpm for removal of any precipitate. Finally, 10 μl 10 M HCl was added to neutralize (dilution 1:10) the solution prior measurement of tryptophan. In case of a spiking with fructose or tryptophan, the spiking solution contained 60 μM/L fructose and/or tryptophan each.

The mark [5] stands for this setting: % of the ingested/injected material.

Read-outs that look alike come from different tables or passages of the source.

The values below come from patent US20230305016A1, “TEST KIT AND METHOD OF DETERMINING TRYPTOPHAN IN EXTRACTS OF FAECAL SAMPLES” (IMMUNDIAGNOSTIK AG, priority 2020, published 2023).

As to `N[C@@H](Cc1c[nH]c2ccc(O)cc12)C(=O)O` [5-HTP, 5-hydroxytryptophan], in the data set on depression, the side effects entry is on record as “may have serious side effects” and the “effective in alleviating depression in adults” value is on record as “better than placebo”.

With `O=S(=O)(c1ccccc1)N(CC(F)(F)F)c1ccc(C(O)(C(F)(F)F)C(F)(F)F)cc1` [T0901317], in the data set with GLUT5, the “GLUT5 mRNA” value was “increase” and the GLUT5 protein levels result is “increased”.

For the compound `N[C@@H](Cc1c[nH]c2ccccc12)C(=O)O` [^14C-Tryptophan], in data set [1] (setting [5]), the Retention in liver is reported as 0.7% and the urinary excretion was 60%. Besides, in data set [1] (detected but not quantified), the “Oxidation into 14CO2” value is given as “xx^b”. Further, in data set [1] (summary of Table 1), the urinary excretion is reported as about 60%.

`N[C@@H](Cc1c[nH]c2ccccc12)C(=O)O` [tryptophan]: in the data set on depression, the side effects result is “may have serious side effects” and the “effective in alleviating depression in adults” value is given as “better than placebo”. Moreover, the pKa in data set [2] is reported as 2,38.

`NC(CCCCNCC(=O)C(O)C(O)C(O)CO)C(=O)O` (stereo not shown) [ε-Lysine]: the “absorption in the intestine” value in data set [3] was “NOT absorbed in the intestine”.

On to “D-fructose-L-tryptophan [fructose-tryptophan Amadori product]”, for which the “hydrolyzation of added adduct” value in data set [4] is “hydrolyzed”.
